Test results: patent US9416145B2, “Compositions and methods for inhibiting activity of hypoxia-inducible transcription factor complex and its use for treatment of tumors” (priority 2012, dated 2016)

Experiments:
[1] = tested on: c-Met protein in MDA-MB-231 cells; experiment: Western blot of c-Met protein levels in MDA-MB-231 cells; format: cell-based, human; conditions: MDA-MB-231, 400 nM, HIF1α induced with 150 μM CoCl2
Protocol: Western blot analysis of VEGF and c-Met protein levels. MCF7 and MDA-MB-231 cells were plated in 60 mm diameter cell culture dishes (BD Falcon) to a density of 1.0×10^6 cells/mL. […] All samples contained a final concentration 0.1-0.2% v/v of DMSO. After a 6 hour incubation period, hypoxia was induced with 300 μM DFO in MCF7 and with […] in MDA-MB-231 cells. Samples were incubated for an additional 18 hours. Total cellular proteins were extracted from the cells using cell lysis buffer according to manufacturer's protocol (Cell Signaling). Protein concentrations were measured with BCA Protein assay kit (Pierce/Thermo Scientific). Equal amounts of protein samples were subjected to SDS-PAGE and electroblotted to PVDF membrane (Bio-Rad). These were probed first with an anti-VEGF mouse monoclonal (sc-57496, Santa Cruz Biotechnology) or anti c-Met rabbit polyclonal antibody (sc-10, Santa Cruz Biotechnology), stripped with Restore Western Blot Stripping Buffer (Pierce/Thermo Scientific) and re-probed with a rabbit polyclonal anti-β-actin antibody (4867, Cell Signaling).
After washing with tris-buffered saline—Tween 20 (TBST) solution, the membranes were incubated with horseradish peroxidase (HRP)-conjugated secondary antibodies (Santa Cruz Biotechnology). Signals were detected by using SuperSignal chemiluminescent kit (Pierce/Thermo Scientific).

[2] = tested on: global transcript levels (28,869 transcripts) in MCF7 cells; experiment: Gene expression profiling with Affymetrix Human Gene ST 1.0 Arrays; format: cell-based
Text: Since the target proteins p300 and CBP are pleiotropic multidomain coactivators, their CH1 regions contain binding sites for multiple transcription factors. One potential concern of the use of ETPs for gene regulation is specificity, because inhibiting the interaction between CBP/p300 and transcription factors other than HIF1α may result in large numbers of affected genes. To rule out nonspecific genome-wide effects of ETPs, we conducted in vitro gene expression profiling experiments with LS72 using Affymetrix Human Gene ST 1.0 Arrays containing oligonucleotide sequences representing 28,869 transcripts.^67,68
In order to interrogate cellular genome for global effects, MCF7 cells treated with LS72 at 400 nM were used. Treatment of cells with LS72 at a concentration of 400 nM affected the expression of only 178 genes at ≧2.0 fold levels (FIG. 20). By comparison, treatment with DFO alone changed levels of 329 genes ≧2.0 fold. […] In cells treated with LS72 under DFO-induced hypoxia conditions, we identified 190 genes were affected by this compound. Clustering analysis was performed to identify similarities in the expression profiles between different treatments (FIG. 19).

[3] = tested on: HIF1 inducible promoter (hRE-hCMV-Luc) in MDA-MB-231 cells; experiment: Luciferase assay of hypoxia-inducible promoter activity; format: cell-based, human; conditions: MDA-MB-231 hRE-hCMV-Luc, 300 uM desferrioxamine mesylate 18 h; 200 nM and 600 nM
Protocol: We first examined the effect of designed ETPs on activation of the HIF1 inducible promoters. […] In the course of the experiment, cells were incubated with ETPs LS69, LS72, LS75 and DKP compound NP481. In parallel, untreated cells with only vehicle (DMSO) added, were used as controls. Hypoxia conditions were induced by incubating cells with 300 uM desferrioxamine mesylate for 18 h. Cells were harvested, lysed and the levels of luciferase were determined by a luminometer.
Luciferase assays. MDA-MB-231-hRE-Luc cells were maintained in high glucose Dulbecco's Modified Eagles' Medium (DMEM) supplemented with 10%© fetal bovine serum and 0.4 g/L Geneticin (G418 sulfate, RPI Corporation). Cells were plated in 24-well dishes (BD Falcon) at a density of 6×10^4 cells/well using 1 mL of a 6.5×10^4 cell/mL suspension. […] Cells were incubated for 6 h at 37° C. in a humidified atmosphere with 5% CO2. Hypoxia was induced by adding desferrioxamine mesylate (DFO, Sigma) to a final concentration of 300 μM, and cells were incubated for an additional 18 hours. Whole cell lysate was isolated by washing the cells twice with ice cold PBS and then adding 150 μL of Cell Culture Lysis Reagent (CCLR, Promega). Lysate was collected, centrifuged at 13,000 rpm at 4° C., aliquoted, and stored at −80° C. Luciferase assays were conducted by allowing whole cell lysate and Luciferase Assay Reagent (Promega) come to ambient temperature for 1 hour prior to use. Luciferase assays were conducted according to the manufacturer's instructions (Promega) using a Turner TD-20e Luminometer. Relative light intensity measurements were normalized by performing a Bradford assay to determine the protein content of the lysate used in the luciferase assay. Briefly, 50 μL of cell lysate/luciferase assay reagent mix was added to 200 μL of Bradford reagent and 750 μl, of Millipore water in a 1.5 mL cuvette. Protein standards were created in the range of 1 mg/mL to 10 μg/mL using an appropriate amount of a 1 mg/mL BSA solution. Absorbance was measured at 595 nm using a DU-800 spectrophotometer. The experiments were carried out in triplicate. The results are presented in FIG. 6 with the bar graphs represent mean values, and error bars—standard error of the mean value.

[4] = MCF7, hypoxic induction with DFO (300 μM), LS72 400 nM

## CN1C(=O)[C@]2(Cc3ccc(CCc4ccc(C[C@@]56SS[C@@](CO)(C(=O)N5C)N(C)C6=O)cc4)cc3)SS[C@@]1(CO)C(=O)N2C (racemic) [LS72, 4,4′-((ethane-1,2-diylbis(4,1-phenylene))bis(methylene))bis(1-(hydroxymethyl)-5,7-dimethyl-2,3-dithia-5,7-diazabicyclo[2.2.2]octane-6,8-dione)]
[1]
  c-Met protein levels (western blot): significant downregulation
[2]; MCF7, LS72 400 nM
  number of genes downregulated ≧2.0 fold: 88 genes
  number of genes upregulated by ≧2.0 fold: 90 genes
  number of genes with expression affected at ≧2.0 fold levels: 178 genes
[2]; MCF7, LS72 under DFO-induced hypoxia conditions
  number of genes affected under DFO-induced hypoxia: 190 genes
[2]; [4]
  CAV1 (Entrez 857) expression change, microarray: −1.3
  LOXL2 (Entrez 4017) expression change, microarray: −1.4
  MET (Entrez 4233) expression change, microarray: −2.2
  SLC5A6 (Entrez 8884) expression change, microarray: −2.4
  SLC5A8 (Entrez 160728) expression change, microarray: −1.4
  SLC7A2 (Entrez 6542) expression change, microarray: −2.5
  SLC9A2 (Entrez 6549) expression change, microarray: −1.8
  SLC9A3R1 (Entrez 9368) expression change, microarray: −1.6
  SLC25A12 (Entrez 8604) expression change, microarray: −1.8
  SLC25A15 (Entrez 10166) expression change, microarray: −1.5
  SLC26A2 (Entrez 1836) expression change, microarray: −1.4
  SLC27A4 (Entrez 10999) expression change, microarray: −1.4
  SLC35A1 (Entrez 10559) expression change, microarray: −2.2
  SLC35D1 (Entrez 23169) expression change, microarray: −3.1
  SLC38A9 (Entrez 153129) expression change, microarray: −1.5
  SLC39A11 (Entrez 201266) expression change, microarray: −1.9
  TFRC (Entrez 7037) expression change, microarray: −1.5
  TGFB3 (Entrez 7043) expression change, microarray: −1.5
[3]
  hypoxia-inducible promoter activity (luciferase): significant reduction in hypoxia-inducible promoter activity
